# Results: PMC6841712 (Scientific Reports, 2019)
# Target: T1, 145138 (Aurantiochytrium limacinum, UniProt A0A3S5XF47)
# T1 construct: 6x His-tagged full-length ORF overexpressed in A. limacinum; secreted form purified from medium on Ni-Sepharose; cleaved between L159 and A160; N-terminus ALSSS; 30 kDa on SDS-PAGE
# Assay: inhibition of TF-TG hydrolysis ([…],3-TF-DG release), TLC fluorescence scan
# Format: biochemical
# Settings: competitive; substrate TF-TG
# T1 sequence (A0A3S5XF47 160-420): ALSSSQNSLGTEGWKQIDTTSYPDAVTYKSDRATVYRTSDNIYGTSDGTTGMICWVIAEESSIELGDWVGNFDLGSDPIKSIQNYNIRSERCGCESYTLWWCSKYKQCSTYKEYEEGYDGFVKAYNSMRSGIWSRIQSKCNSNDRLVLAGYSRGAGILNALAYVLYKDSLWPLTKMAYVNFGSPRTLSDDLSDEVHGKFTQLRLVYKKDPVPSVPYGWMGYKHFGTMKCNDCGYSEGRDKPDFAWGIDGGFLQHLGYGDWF
structure (smiles),measurement,value
CCCCCCCCCCCCCCCCCC(=O)O[C@H](CO)COP(=O)([O-])OCC[N+](C)(C)C [2-acyl LPC],"inhibition of TF-TG hydrolysis (1,3-TF-DG release), TLC fluorescence scan",2-acyl LPC competitively inhibited the release of fatty acyl chain at sn-2 of TG
